In US12427122B2, “Method of making transdermal amphetamine composition with low levels of carbamate” (Noven Pharmaceuticals, Inc., priority 2021, dated 2025):

Assay: Stability of the amphetacarbamate moiety in solution
Format: physicochemical
Source text: As noted above, the existence or identity of amphetamine carbamate or amphetacarbamate per se were not known. Rather, amphetamine carbamate was identified and characterized by analyzing crystals isolated from drug-containing polymer matrices of transdermal amphetamine compositions, and amphetacarbamate was identified the work done to identify and characterize amphetamine carbamate. In addition to the inventions described herein pertaining to transdermal amphetamine compositions and amphetamine transdermal delivery systems, methods for detecting and quantifying amphetamine carbamate had to be developed. […] Thus, for example, typical HPLC assays could not be used.

For “(S)-1-phenylpropan-2-ammonium-(S)-(1-phenylpropan-2-yl)carbamate [amphetamine carbamate]”, the “stability of amphetacarbamate moiety” value was “labile and readily converts to amphetamine”.
